≈ marks a conversion by molar mass, not a printed value. Entries after “also recorded” stand apart in the source; their conditions may differ. Blank lines part the entries; values can stand above or below the molecule they belong to.
Legend:
[1] = Thermodynamic solubility in FaSSIF; assay type: physicochemical; settings: for XRPD post-TS (residual solid): after thermodynamic solubility in FaSSIF
Experimental: Thermodynamic Aqueous Solubility. Aqueous solubility was determined by suspending sufficient compound in relevant media to give a maximum final concentration of ≥10 mg/ml of the parent free-form of the compound. The suspension was equilibrated at 25° C., on a Heidolph plate shaker set to 750 rpm for 24 hours. The pH of the saturated solution was then measured, and the suspension filtered through a glass fiber C filter (particle retention 1.2 μm) and diluted appropriately. Quantitation was by HPLC with reference to a standard solution of approximately 0.15 mg/ml in DMSO. Different volumes of the standard, diluted and undiluted sample solutions were injected. The solubility was calculated using the peak areas determined by integration of the peak found at the same retention time as the principal peak in the standard injection. [table] In addition to the competitive slurrying, Form A and Form B were both submitted to thermodynamic solubility measurements in FaSSIF media, as well as IDR in pH 7.4 phosphate buffer. The results are shown in Table 19 The full reports for both measurements can be found in Appendix 2—Analytical Service Reports.

[2] = Gravimetric Vapor Sorption (GVS); assay type: physicochemical; settings: for Hygroscopicity (GVS): 0-90% RH; for Hygroscopicity (GVS) / GVS mass uptake / GVS mass uptake, equivalent of water: 25° C.; for XRPD Post-GVS: after GVS isotherm; for GVS mass uptake / GVS mass uptake, equivalent of water: between 0 and 90% RH
Experimental: Gravimetric Vapor Sorption (GVS). Sorption isotherms were obtained using a SMS DVS Intrinsic moisture sorption analyzer, controlled by DVS Intrinsic Control software. The sample temperature was maintained at 25° C. by the instrument controls. The humidity was controlled by mixing streams of dry and wet nitrogen, with a total flow rate of 200 ml/min. The relative humidity was measured by a calibrated Rotronic probe (dynamic range of 1.0-100% RH), located near the sample. The weight change, (mass relaxation) of the sample as a function of % RH was constantly monitored by a microbalance (accuracy ±0.005 mg). Typically, 5-30 mg of sample was placed in a tared mesh stainless steel basket under ambient conditions. The sample was loaded and unloaded at 40% RH and 25° C. (typical room conditions). A moisture sorption isotherm was performed as outlined below (2 scans per complete cycle). The standard isotherm was performed at 25° C. at 10% RH intervals over a 0-90% RH range. Typically, a double cycle (4 scans) was carried out. Data analysis was carried out within Microsoft Excel using the DVS Analysis Suite. [table] The sample was recovered after completion of the isotherm and re-analyzed by XRPD.

[3] = Intrinsic dissolution rate (IDR) in pH 7.4 phosphate buffer; assay type: physicochemical; settings: for XRPD post-IDR: after IDR in pH 7.4 phosphate buffer; for Dissolution rate (pH 7.4 buffer): pH 7.4 phosphate buffer
Source text: In addition, the thermodynamic solubility and the IDR of the two forms was compared in selected media. In addition to the competitive slurrying, Form A and Form B were both submitted to thermodynamic solubility measurements in FaSSIF media, as well as IDR in pH 7.4 phosphate buffer. The results are shown in Table 19 The full reports for both measurements can be found in Appendix 2—Analytical Service Reports.

[4] = Accelerated storage stability (XRPD & HPLC); assay type: physicochemical
Experimental: Chemical Purity Determination by HPLC. Purity analysis was performed on an Agilent HP1100/Infinity II 1260 series system equipped with a diode array detector and using OpenLAB software. The full method details are provided below in Table 12: [table] HPLC indicated the material to have a purity of 99.6% (FIG. 12A). […] The sample was left for an additional 22 days (total 30 days storage) and re-analyzed by XRPD, appearing as Form A, lacking the additional peaks previously observed (FIG. 13B). It was therefore possible that contamination of sample on the instrument in the previous 8-day timepoint was the likely cause of the additional peaks, rather than a form chance or degradation. […] (92 J/g) (FIG. 16). PLM and SEM images indicate the particles to be a series of spherical agglomerates (ca. 50 to 100 μm in diameter), which consist of small (<10 μm) plate-like crystals (FIGS. 17A-17B). HPLC analysis indicated the sample maintained a high purity of 99.5% (FIG. 18A). […] There is a small hysteresis between adsorption and desorption. The sample was unchanged by XRPD post-GVS analysis. […]

[5] = Competitive slurrying of Form A and Form B; assay type: physicochemical; settings: competitive slurrying of Form A and Form B in a range of solvents at 5, 25 and 50° C.
Experimental: The aim of this work was to investigate the order of stability of the scaled-up Form A and Form B via competitive slurrying of the materials in a range of solvents at 5° C., 25° C. and 50° C.
The proposed solvents were aliquoted (1 ml) into HPLC vials and held at 5° C., 25° C. and 50° C. respectively, equilibrating at 300 rpm. […] The saturated solutions were allowed to equilibrate overnight.
Approximately 300 mg of Form B, prepared as described previously in Example 5, and the Form A were added to a 20 ml scintillation vial. The vial was subjected to turbula mixing for over 2 hours to ensure the mixture was homogenous. Approximately 30 mg of a mixture of Form A and Form B was added to a series HPLC vials. The vials were placed at 5, 25 and 50° C., 300 rpm. The suspensions prepared previously were filtered through a PTFE syringe directly into each vial to suspend the prepared form mixture in a saturated solution of the target solvent. Polymorph turnover was investigated by taking a 30-50 μl aliquot of the suspension and analyzing by XRPD.

[6] = Solvent assessment for lyophilization; assay type: physicochemical; settings: maximum of 60 vol
Experimental: Preparation and solubility of amorphous PP-001. PP-001 was treated with increasing aliquots of solvent until a maximum of 60 vol (1800 μl) was added in a HPLC vial.
Samples that formed solutions were positive pressure filtered using a PTFE syringe filter to remove any remaining solid particulates. The solutions were then flash frozen in a dry ice/acetone bath and lyophilized overnight to remove the solvent. Solids isolated post-lyophilization were analyzed by XRPD and characterized.

[7] = Stability in artificial gastric juice, simulated intestinal fluid and PBS; assay type: in vitro ADME
Source text: (§1) The general tested characteristics of 3-(2,3,5,6-tetrafluoro-3′-trifluoromethoxy-biphenyl-4-ylcarbamoyl)-thiophene-2-carboxylic acid (PP-001) are shown below in Table 8.

[8] = Solubility and solvent selection assessment; assay type: physicochemical
Experimental: PP-001 (ca. 20 mg, Batch #1) was treated with increasing aliquots of solvent until either a clear solution or maximum of 80 vol ([…]) of solvent was added. Samples were left for […] at 25° C., 300 rpm, after each solvent addition before observations were recorded. Where possible, samples were heated to 50° C. and further observations were taken. Solutions at 25 or 50° C. were cooled to 5° C. at 0.1° C./min, 300 rpm and held overnight. Any suspensions at 50° C. were subjected to maturation cycling between RT/50° C. (4 hours per cycle). Solvents unsuitable for heating to 50° C. or cooling to 5° C. were subjected to evaporation, antisolvent addition at RT or maturation at RT, depending on the solvent.
After 24 h, any solutions at 5° C. were subjected to evaporation at RT with the lid removed. Samples subjected to evaporation were analyzed once dry. The remaining suspensions were left for 3 days at conditions before being extracted using an SPE cartridge and frit under positive pressure filtration.

[9] = Solubility in 50 mM phosphate buffer; assay type: physicochemical
Source text: as §1

[10] = Stability in human plasma; assay type: in vitro ADME
Source text: as §1

[11] = Stability at pH 2, pH 7.4 and pH 8.5; assay type: physicochemical
Source text: as §1

pKa of PP-001 = assay type: physicochemical
Source text: as §1

Oral bioavailability = settings: in vivo, depending on formulation used
Source text: as §1

[12] = LogP (measured) of PP-001; assay type: physicochemical
Source text: as §1

- Thermodynamic solubility (TS) in FaSSIF ([1]; FaSSIF, 25° C., 24 hours): 930 µg/mL
- XRPD post-TS (residual solid) [1]: Unchanged, residual
- Hygroscopicity (GVS) [2]: non-hygroscopic
- XRPD Post-GVS [2]: unchanged
- XRPD Post-GVS ([2]; listed as PP-001 Form B): Unchanged
- GVS mass uptake [2]: 0.10 wt %
- GVS mass uptake, equivalent of water [2]: 0.03 mol
- GVS mass uptake ([2]; listed as PP-001 Form B): 0.10 wt %
- XRPD post-IDR [3]: Unchanged
- Dissolution rate (pH 7.4 buffer) [3]: 0.15 mg/min/cm^2
- HPLC purity after storage ([4]; 25° C./97% RH, 7 days): 99.4%
- XRPD after storage ([4]; 25° C./97% RH, 7 days): no observable changes
- XRPD after storage ([4]; 25° C./97% RH, 7 days, listed as PP-001 Form B): Unchanged
- HPLC purity after storage ([4]; 40° C./75% RH, 7 days): 99.6%
- XRPD after storage ([4]; 40° C./75% RH, 7 days): no observable changes
- XRPD after storage ([4]; 40° C./75% RH, 7 days, listed as PP-001 Form B): Unchanged
SMILES: O=C(Nc1c(F)c(F)c(-c2cccc(OC(F)(F)F)c2)c(F)c1F)c1ccsc1C(=O)O [Form B, 3-(2,3,5,6-tetrafluoro-3′-trifluoromethoxy-biphenyl-4-ylcarbamoyl)-thiophene-2-carboxylic acid]

- solubility thermodynamic at 24 h ([1]; FaSSIF, 25 °C, pH 6.4, fassif, thermodynamic from solid, FaSSIF, 25° C., 24 hours, read-out: Thermodynamic solubility (TS) in FaSSIF): 760 µg/mL (≈ 1590 µM)
- XRPD post-TS (residual solid) [1]: Unchanged, residual
- Hygroscopicity (GVS) ([2]; listed as PP-001 Form A): mass uptake. Sample is non- hygroscopic
- XRPD Post-GVS ([2]; listed as PP-001 Form A): Unchanged
- GVS mass uptake, equivalent of water [2]: 0.03 mol
- GVS mass uptake ([2]; listed as PP-001 Form A): 0.12 wt %
- XRPD post-IDR [3]: Unchanged
- Dissolution rate (pH 7.4 buffer) [3]: 0.071 mg/min/cm^2
- XRPD after storage ([4]; 40° C./75% RH, 8 days, listed as PP-001 Form A): Unchanged
SMILES: O=C(Nc1c(F)c(F)c(-c2cccc(OC(F)(F)F)c2)c(F)c1F)c1ccsc1C(=O)O [Form A, 3-(2,3,5,6-tetrafluoro-3′-trifluoromethoxy-biphenyl-4-ylcarbamoyl)-thiophene-2-carboxylic acid]
- XRPD post-TS (residual solid) ([1]; listed as PP-001 Form A): largely unchanged; also recorded: XRPD unchanged in form plus NaCl reference peaks
- Relative thermodynamic stability of the forms [5]: thermodynamically more stable form; also recorded: preferred form over all conditions and solvents tested
- XRPD after storage ([4]; 25° C./97% RH, 8 days, listed as PP-001 Form A): a small peak was gained at 8.1 2θ angle and a loss of a small peak at 17.6 2θ angle; also recorded: Small peak gain at 8.1 2Θ and a loss of small peaket 17.6

- Solubility for lyophilization ([6]; 1,4-dioxane): soluble
- Solubility for lyophilization ([6]; THF:water (70:30)): soluble
- Solubility in solvents ([8]; 25° C., dissolution in volumes <80 vol, in 15 of the solvents tested): good solubility
- Solubility in solvents ([8]; 50° C., IPA, 1-propanol, ACN, MeOH:water (3%), MeOH:water (5%), EtOH:water (5%), IPA:water (5%) and IPA:water (25%)): Clear solutions
- Solubility in solvents ([8]; aprotic, polar solvents such as THF, DMSO and acetone): higher solubility
- Solubility in solvents ([8]; heptane, toluene, chloroform and water, up to 80 vol, heated to 50° C.): remained suspensions
- solubility ([9]; pH 4, aqueous buffer): 1.4 µg/mL (≈ 2.92 µM)
- solubility ([9]; pH 7.4, aqueous buffer): 854 µg/mL (≈ 1780 µM)
- solubility ([9]; pH 9, aqueous buffer): 833 µg/mL (≈ 1740 µM)
- pKa (pKa of PP-001): 2.23
- bioavailability (Oral bioavailability): 15 to 30%
- logP [12]: 4.19
SMILES: O=C(Nc1c(F)c(F)c(-c2cccc(OC(F)(F)F)c2)c(F)c1F)c1ccsc1C(=O)O [PP-001, 3-(2,3,5,6-tetrafluoro-3′-trifluoromethoxy-biphenyl-4-ylcarbamoyl)-thiophene-2-carboxylic acid]
- Stability (stable for) ([7]; PBS pH 7.4): Stable for >6 h in artificial gastric juice, simulated
- Stability (stable for) ([7]; artificial gastric juice): Stable for >6 h in artificial gastric juice, simulated
- Stability (stable for) ([7]; simulated intestinal fluid): Stable for >6 h in artificial gastric juice, simulated
- Stability (stable for) [10]: Stable for >6 h in artificial gastric juice, simulated
- Stability (stable for) ([11]; pH 2 (HCl)): Stable for >16 h at pH 2 (HCl), pH 7.4 (trisbuffer),
- Stability (stable for) ([11]; pH 7.4 (tris buffer)): Stable for >16 h at pH 2 (HCl), pH 7.4 (trisbuffer),
- Stability (stable for) ([11]; pH 8.5 (tris buffer)): Stable for >16 h at pH 2 (HCl), pH 7.4 (trisbuffer),
